From US20240239806A1, “COMPOUNDS, COMPOSITIONS AND METHODS OF TREATING DISORDERS” (Chengdu Anticancer Bioscience, Ltd., priority 2021, published 2024)
Where two headings read alike, the source gives them in different places.

Tests used:
Format in all cases: cell-based
[1] = tested on: RPEMYC^H2B-GFP cells; assay: Phenotypic screening assay (mitotic arrest, polyploidy); conditions: 1 nM to 30 μM; for IC50: read-out: Proliferative arrest (>50%)
Method in brief: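 RPE cells expressing MYC and H2B-EGFP treated with compound at 1 nM–30 μM; mitotic index scored at 24 h and polyploidy (DNA content) at 48 h by automated imaging, with reads at 24, 48 or 72 h. Hits show transient mitotic arrest followed by polyploid accumulation.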

[2] = tested on: A549; assay: MECP in cancer cell line; conditions: Homo sapiens
Description: (§1) Six lung cancer cell lines (NCI-H23, NCI-H460, NCI-H596, NCI-H2170, Calu-6 and A549), two colon cancer cell lines (HCT116 and SW460), one breast cancer cell line MDA-MB-231, one gastric cancer cell line NCI-N87, one prostate cancer cell line DU145, one cervical cancer cell line Hela, and one glioblastoma cell line T98G were obtained from ATCC. The T2 HCC cell line was derived from a mouse liver cancer model initiated by a transgene of MYC. All cell lines were cultured in DMEM (Gibco, Cleveland, TN, USA) supplemented with 5% fetal bovine serum (Gibco), penicillin (100 U/mL)—streptomycin (100 μg/mL) (Gibco, Cat. No. 15140-122), 2 mM L-glutamine (Gibco, 200 mM solution, Cat. No. 25030081), and 1 mM sodium pyruvate (Gibco, 100 mM solution, Cat. No. 11360070) at 37° C. in a humidified incubator that was maintained at 5% CO2.
(§2) We have previously developed a mechanism-informed phenotypic screening assay to identify novel antimitotic agents. Equipped with a prior understanding of the versatile functions of the chromosomal passenger protein (CPP) complex in orchestrating karyokinesis and cytokinesis, the screening assay is to score for phenotypes typically seen when the CPP complex is disabled. Specifically, the parameters for a positive hit are a temporary elevation of mitotic index (MI) at 24 hours of drug treatment and an accumulation of polyploid cells at 48 hours of drug treatment, indicative of mitotic arrest and cytokinetic failure respectively. These parameters exclude compounds that elicit only a prolonged arrest of cells in mitosis, a phenotype typically provoked by spindle toxins. The screening procedure is briefly summarized here. RPEMYC^H2B-GFP cells engineered to express a Histone 2B-EGFP fusion protein were passaged as batches of 96-well plates, 18-24 hours before exposure to the chemical compounds of the present disclosure at concentrations from 1 nM to 30 μM. At 24, 48 or 72 hours after initiation of treatment, cells were analyzed for either an arrest in mitosis or a change in DNA content by GE IN-Cell Analyzer 2000. As set forth in Table 2 below, a value of greater than or equal to 1 nM and less than or equal to 1.0 μM is marked “A”; a value greater than 1.00 μM and less than or equal to 10.0 μM is marked “B”; a value greater than 10.0 μM and less than or equal to 30.0 μM is marked “C”; and a value greater than 30.0 μM is marked “D.”

[3] = tested on: HCT116; assay: MECP in cancer cell line; conditions: Homo sapiens, HCT-116
Description: as §1, §2

[4] = tested on: Hela; assay: MECP in cancer cell line; conditions: Homo sapiens
Description: as §1, §2

[5] = tested on: MDA-MB-231; assay: MECP in cancer cell line; conditions: Homo sapiens
Description: as §1, §2

[6] = tested on: SW480; assay: MECP in cancer cell line; conditions: Homo sapiens
Description: as §1, §2

[7] = tested on: T2 HCC; assay: MECP in cancer cell line; conditions: Mus musculus
Description: as §1, §2

[8] = tested on: NCI-H23; assay: MECP in cancer cell line; conditions: Homo sapiens
Description: as §1, with “CO2. […]” for “CO2.”

[9] = tested on: NCI-N87; assay: MECP in cancer cell line; conditions: Homo sapiens
Description: as §1, with “CO2. […]” for “CO2.”

[10] = tested on: A549; assay: MTT assay of cellular proliferation; conditions: Homo sapiens, 50% inhibition of cellular proliferation
Description: as §1
(§3) The MTT assay measures cellular metabolic activity as a proxy for cell viability and involves the conversion of the water-soluble yellow dye MTT [3-(4,5-dimethylthiazol-2-yl)-2,5-diphenyltetrazolium bromide] into an insoluble purple formazan by the action of mitochondrial reductase. Formazan is then solubilized and its concentration is determined by measuring the optical density (OD) value at a wavelength of 570 nm. The value is in proportional to the number of live cells with excellent linearity up to ˜10^6 cells per well. The MTT assay was used to determine the EC50 value, the concentration of a compound that leads to 50% inhibition of cellular proliferation. Briefly, cells were split when growing to the mid-Log phase. Cells in 100 μL of culture medium were seeded into each well of 96-well microplates and cultivated for 15-24 hours to reach a confluence of 20-30% and were then exposed to drugs at concentrations ranging from 1 nM to 30 μM. At the endpoint, 20 μL of a MTT stock solution in DMSO (5 mg/mL) was added to each well that contains 100 μL of DMEM. The microplates were left in the cell culture incubator for 3-4 h before subjected to solubilization and determination of formazan at A570 in a microplate reader (BioTek ELX808iu). […] Therefore, these compounds might hold a broad utility in the treatment of a large variety of human malignancies.

[11] = tested on: HCT116; assay: MTT assay of cellular proliferation; conditions: Homo sapiens, HCT-116, 50% inhibition of cellular proliferation
Description: as §1, §3

[12] = tested on: Hela; assay: MTT assay of cellular proliferation; conditions: Homo sapiens, 50% inhibition of cellular proliferation
Description: as §1, §3

[13] = tested on: MDA-MB-231; assay: MTT assay of cellular proliferation; conditions: Homo sapiens; MDA-MB-231, MTT, 50% inhibition of cellular proliferation
Description: as §1, §3

[14] = tested on: NCI-H23; assay: MTT assay of cellular proliferation; conditions: Homo sapiens, 50% inhibition of cellular proliferation
Description: as §1, §3

[15] = tested on: NCI-N87; assay: MTT assay of cellular proliferation; conditions: Homo sapiens, 50% inhibition of cellular proliferation
Description: as §1, §3

[16] = tested on: SW480; assay: MTT assay of cellular proliferation; conditions: Homo sapiens, 50% inhibition of cellular proliferation
Description: as §1, §3

[17] = tested on: T2 HCC; assay: MTT assay of cellular proliferation; conditions: Mus musculus, 50% inhibition of cellular proliferation
Description: as §1, §3

[18] = read-out: Min. Effective conc. for Polyploidy (≥5%)

For `COC(=O)c1ccc2nccc(Oc3cc(NC(C)=O)cc(OC)c3)c2c1` [Compound 42, methyl 4-(3-acetamido-5-methoxyphenoxy)quinoline-6-carboxylate], the minimal effective concentration [1, 18] was 0.001 to 1 µM, the minimal effective concentration ([1]; read-out: Mitotic Arrest (≥5%)) was 0.001 to 1 µM and the IC50 [1] was 1 to 1000 nM. For the same compound, the minimal effective concentration [2] was 0.001 to 1 µM, the minimal effective concentration [3] was 0.001 to 1 µM and the minimal effective concentration [4] was 0.001 to 1 µM. It also gave a minimal effective concentration [5] of 0.001 to 1 µM, a minimal effective concentration [6] of 0.001 to 1 µM and a minimal effective concentration [7] of 0.001 to 1 µM. It also gave a minimal effective concentration [8] of 0.001 to 1 µM, a minimal effective concentration [9] of 0.001 to 1 µM and an EC50 [10] of 1 to 1000 nM. The EC50 [11] was 1 to 1000 nM, the EC50 [12] was 1 to 1000 nM and the EC50 [13] was 1 to 1000 nM. The EC50 [14] was 1 to 1000 nM, the EC50 [15] was 1 to 1000 nM and the EC50 [16] was 1 to 1000 nM. The EC50 [17] was 1 to 1000 nM.
In the case of `COc1cc(Oc2ncnc3ccsc23)cc(-n2cccn2)c1` [Compound 38, 4-(3-methoxy-5-(1H-pyrazol-1-yl)phenoxy)thieno[3,2-d]pyrimidine], the minimal effective concentration [1, 18] is reported as 0.001 to 1 µM, the minimal effective concentration ([1]; read-out: Mitotic Arrest (≥5%)) is reported as 0.001 to 1 µM and the IC50 [1] is reported as 1 to 1000 nM. The minimal effective concentration [2] was 0.001 to 1 µM, the minimal effective concentration [3] was 0.001 to 1 µM and the minimal effective concentration [4] was 0.001 to 1 µM. For the same compound, the minimal effective concentration [5] was 0.001 to 1 µM, the minimal effective concentration [6] was 0.001 to 1 µM and the minimal effective concentration [7] was 0.001 to 1 µM. For the same compound, the minimal effective concentration [8] was 0.001 to 1 µM, the minimal effective concentration [9] was 0.001 to 1 µM and the EC50 [10] was 1 to 1000 nM. The EC50 [11] was 1 to 1000 nM, the EC50 [12] was 1 to 1000 nM and the EC50 [13] was 1 to 1000 nM. For the same compound, the EC50 [14] was 1 to 1000 nM, the EC50 [15] was 1 to 1000 nM and the EC50 [16] was 1 to 1000 nM. The EC50 [17] was 1 to 1000 nM.
In the case of `COc1cc(Oc2ccnc3cc(OC)c(C(N)=O)cc23)cc(-n2cccn2)c1` [Compound 30, 7-methoxy-4-(3-methoxy-5-(1H-pyrazol-1-yl)phenoxy)quinoline-6-carboxamide], the “Min. Effective conc. for Polyploidy (≥5%)” value [1] is reported as “D (a value greater than 30.0 μM)”, the “Mitotic Arrest (≥5%)” value [1] is reported as “D (a value greater than 30.0 μM)” and the “Proliferative arrest (>50%)” value [1] is reported as “D (a value greater than 30.0 μM)”. For the same compound, the “Along with Cell Death” value ([1]; listed as 25) was “D (a value greater than 30.0 μM)”, the minimal effective concentration [1, 18] was 0.001 to 1 µM and the minimal effective concentration ([1]; read-out: Mitotic Arrest (≥5%)) was 0.001 to 1 µM. It also gave an IC50 [1] of 1 to 1000 nM, a minimal effective concentration [2] of 0.001 to 1 µM and a minimal effective concentration [3] of 0.001 to 1 µM. The minimal effective concentration [4] was 0.001 to 1 µM, the minimal effective concentration [5] was 0.001 to 1 µM and the minimal effective concentration [6] was 0.001 to 1 µM. For the same compound, the minimal effective concentration [7] was 0.001 to 1 µM, the minimal effective concentration [8] was 0.001 to 1 µM and the minimal effective concentration [9] was 0.001 to 1 µM. For the same compound, the EC50 [10] was 1 to 1000 nM, the EC50 [11] was 1 to 1000 nM and the EC50 [12] was 1 to 1000 nM. It also gave an EC50 [13] of 1 to 1000 nM, an EC50 [14] of 1 to 1000 nM and an EC50 [15] of 1 to 1000 nM. It also gave an EC50 [16] of 1 to 1000 nM and an EC50 [17] of 1 to 1000 nM.
